In patent publication US12012391B1, “9-(2-hydroxyquinoline-3-yl)-10-[3-(dimethylamino)propyl]-3,4,6,7,9,10-hexahydroacridine-1,8(2H,5H)-dione as an antimicrobial compound” (KING FAISAL UNIVERSITY, priority 2023, dated 2024):

Experiments:
Conditions in all cases: after 10, 20, 40 and 60 minutes at all dilutions 1:100 to 1:800
St. aereus = test: Antimicrobial activity by agar dilution, St. aereus; type: cell-based, Staphylococcus aureus
Procedure: (§1) The antimicrobial properties of the synthesized compound 9-(2-hydroxyquinoline-3-yl)-10-[3-(dimethylamino)propyl]-3,4,6,7,9,10-hexahydroacridine-1,8(2H,5H)-dione were studied by the method of agar dilution. Test solutions of each compound were prepared in a concentration of 1% using dimethylformamide as a solvent. Then they were diluted in a physiological solution to obtain the final experimental dilutions 1:100, 1:200, 1:400, and 1:800. The effect of these substances were compared with furacillin in a controllable study. The testing microbes used were gram positive bacteria St. aereus, gram negative bacteria E. Coli and Ps. aeruginosa, and Candida albicans fungi. The experiments used for this survey were meat-pentonlu agar (EPA) for cultivation of bacteria and Saburo environment for fungi. Each experiment used 1 ml of test solution on each plate 500 min. Add 2 drops of emulsified with microbes feel. All experimental samples were taken from the agar after 10, 20, 40, 60 minutes in the environment on the basis of Patrk planted. Bacteria were cultivated at a temperature of 37° C. for 1 day and the mushroom was kept in a thermostat for […] at a temperature of 28° C. Then the results were checked.

E. Coli = test: Antimicrobial activity by agar dilution, E. Coli; type: cell-based, Escherichia coli
Procedure: as §1

Ps. aeruginosa = test: Antimicrobial activity by agar dilution, Ps. aeruginosa; type: cell-based, Pseudomonas aeruginosa
Procedure: as §1

Candida albicans = test: Antimicrobial activity by agar dilution, Candida albicans; type: cell-based
Procedure: as §1

Measured: inhibition activity

CN(C)CCCN1C2=C(C(=O)CCC2)C(c2cc3ccccc3nc2O)C2=C1CCCC2=O [9-(2-hydroxyquinoline-3-yl)-10-[3-(dimethylamino)propyl]-3,4,6,7,9,10-hexahydroacridine-1,8(2H,5H)-dione]
highest inhibition activity: St. aereus | E. Coli | Ps. aeruginosa | Candida albicans
